System: Jurkat cells
Assay: Efficiency of incorporation of AF488-capped glycopolymers into cell membranes, flow cytometry
Format: cell-based
Settings: 10 μM AF488-capped polymer, 1 h at RT
Method: Using AF488 labeled polymers, the efficiency with which each glycopolymer was incorporated into cell membranes was measures. Jurkat cells (10^7/mL in serum-free media) were incubated for 1 h at room temperature with 10 μM lipid-conjugated glycopolymer, washed, and then measured for fluorescence by flow cytometry (FIG. 4, panel A).
Jurkat cells were incubated with 10 μM of AF488-capped polymer for 1 h at RT, washed and their fluorescence measured by flow cytometry. […] For FIG. 4-FIG. 5, shown are mean minus background+/−standard deviation of three replicate experiments.
Jurkat cells (10^7/mL) were incubated with AF488-polymers at the given concentration or PBS in serum free media for 1 hr at RT. The cells were then washed, and their fluorescence measured by flow cytometry. Shown are mean and standard deviation of three replicate experiments minus background as measured by cells incubated with PBS instead of polymer.

With DMPC the “level of incorporation into cell membranes” value was “highest levels of incorporation”.
